Data from patent US20050107451A1, “Methods for treating conditions, disorders, or diseases involving cell death” (priority 2001, published 2005).
Values joined by “and” are separate entries in the source; they are usually repeats but may differ in a detail not shown here. Equal values may be shown once. Read-outs that look alike come from different tables or passages of the source.

Tested on: neurons in brain slices
Format: cell-based
Conditions: for NON-STROKE AVERAGE / surviving neurons, NON-STROKE: non-stroke brain slice; for NON-STROKE AVERAGE / STROKE AVG. / surviving neurons, NON-STROKE / surviving neurons, STROKE: 24 hrs exposure; for NON-STROKE AVERAGE / STROKE AVG.: average neuron count; for STROKE AVG. / surviving neurons, STROKE: stroke brain slice; for surviving neurons, NON-STROKE / surviving neurons, STROKE: single count; for neuroprotective properties: stroke and non-stroke brain slices, result in words
From the text: A negative and positive control experiments were also run for comparison. In the positive control, a known neuroprotective gene and reporter gene (i.e., a green fluorescent protein) were shot into the stroke and non-stroke brain slices. In the negative control, only the reporter gene (i.e., a green fluorescent protein) was shot into the stroke and non-stroke brain slices. […]
A negative and positive control experiments were also run for comparison as described above for Example 1. […]
Two sets of brain slices were transfected with a plasmid containing a reporter gene (e.g. a green fluorescent protein). […] One of the sets of brain slices was treated under conditions to simulate stroke, and the other brain slice was a non-stroke control. Survival of neurons in the brain slices, as indicated by expression of the reporter molecule, was examined by direct neuron counts after 24 hrs. exposure to the compound.

Compound	NON-STROKE AVERAGE (0.781 uM)	STROKE AVG. (0.781 uM)	NON-STROKE AVERAGE (1.562 uM)	STROKE AVG. (1.562 uM)	NON-STROKE AVERAGE (3.125 uM)	STROKE AVG. (3.125 uM)	NON-STROKE AVERAGE (6.25 uM)	STROKE AVG. (6.25 uM)	NON-STROKE AVERAGE (12.5 uM)	STROKE AVG. (12.5 uM)	NON-STROKE AVERAGE (25 uM)	STROKE AVG. (25 uM)	NON-STROKE AVERAGE (50 uM)	STROKE AVG. (50 uM)	NON-STROKE AVERAGE (100 uM)	STROKE AVG. (100 uM)	surviving neurons, STROKE (100 uM)	neuroprotective properties	further results
NC(C(=O)O)c1nnn[nH]1 (racemic) [(RS)-(Tetrazol-5-yl)glycine]	25.6	13.2	28.8	17.2	50.4	28.2	94.8	58.8	65.2	56.6	78	53.2	68.8	89	73.6	79.6	95 neurons and 76 neurons and 87 neurons and 66 neurons and 74 neurons	exhibits neuroprotective properties	surviving neurons, NON-STROKE (12.5 uM): 71 neurons and 61 neurons and 75 neurons and 56 neurons and 63 neurons; surviving neurons, NON-STROKE (100 uM): 72 neurons and 87 neurons and 64 neurons and 62 neurons and 83 neurons
CC=C(C)C(=O)OC1CCC2(C)C3CCC4[C@]5(O)CC(O)[C@@]6(O)C(CN7CC(C)CCC7[C@@]6(C)O)[C@]5(O)C[C@@]42O[C@]13O (stereo partly drawn) [Cevadine, (Z)-4α,9-Epoxycevane-3β,4,12,14,16β,17,20-heptol 3-(2-methyl-2-butenoate)]	26.25	9.5	33.2	9	25.6	6.4	27	8.6	64	38.5	93.6	126	118	86.6	73	70	53 neurons and 78 neurons and 77 neurons and 56 neurons and 86 neurons	exhibits neuroprotective properties	surviving neurons, STROKE (3.125 uM): 9 neurons and 5 neurons and 6 neurons and 7 neurons
COC1C(O)[C@H](O[C@H]2CC[C@]3(C)C4CC[C@]5(C)C(C6=CC(=O)OC6)CC[C@]5(O)C4CC[C@@H]3C2)OC(C)[C@@H]1O (stereo partly drawn) [Neriifolin, (3β,5β)-3-[(6-Deoxy-3-O-methyl-α-L-glucopyranosyl)oxyl]-14-hydroxycard-20(22)-enolide]	35	6.4	30.4	10	48.2	5.8	61	19.8	29.75	36.25	60.2	43.4	32.2	17.6	15.6	10.6	–	exhibits neuroprotective properties	surviving neurons, NON-STROKE (25 uM): 49 neurons and 66 neurons and 82 neurons and 42 neurons and 62 neurons
O=C1O[C@H]([C@@H](O)CO)C([O-])=C1O.[Na+] [Sodium Ascorbate, Sodium ascorbate, reference compound]	–	–	–	–	–	–	–	–	–	–	12.5	0.5	10	2	2.5	–	–	did not exhibit neuroprotective properties	NON-STROKE AVERAGE (0.3125 uM): 9.5; STROKE AVG. (0.3125 uM): 2.5; NON-STROKE AVERAGE (0.625 uM): 12.5; STROKE AVG. (0.625 uM): 0.5; NON-STROKE AVERAGE (1.25 uM): 10.5; STROKE AVG. (1.25 uM): 0.5; NON-STROKE AVERAGE (2.5 uM): 8; STROKE AVG. (2.5 uM): 0.5; NON-STROKE AVERAGE (5 uM): 19.5; STROKE AVG. (5 uM): 1; NON-STROKE AVERAGE (10 uM): 15.5; STROKE AVG. (10 uM): 2
